Measurements published in article PMC10648944, “Fumagillin inhibits growth of the enteric protozoan parasite Entamoeba histolytica by covalently binding to and selectively inhibiting methionine aminopeptidase 2” (Antimicrobial Agents and Chemotherapy, 2023).

Assays:
[1] = target: T1, E. histolytica methionine aminopeptidase 2 (EhMetAP2) (Entamoeba histolytica, UniProt C4LWW4); experiment: fluorogenic Met-MCA aminopeptidase assay with purified GST-EhMetAP2, double-reciprocal plot; type: biochemical
T1 construct: gene EHI_126880; full-length, N-terminal GST fusion (GST-EhMetAP2) expressed in S. cerevisiae
T1 sequence (C4LWW4 1-413): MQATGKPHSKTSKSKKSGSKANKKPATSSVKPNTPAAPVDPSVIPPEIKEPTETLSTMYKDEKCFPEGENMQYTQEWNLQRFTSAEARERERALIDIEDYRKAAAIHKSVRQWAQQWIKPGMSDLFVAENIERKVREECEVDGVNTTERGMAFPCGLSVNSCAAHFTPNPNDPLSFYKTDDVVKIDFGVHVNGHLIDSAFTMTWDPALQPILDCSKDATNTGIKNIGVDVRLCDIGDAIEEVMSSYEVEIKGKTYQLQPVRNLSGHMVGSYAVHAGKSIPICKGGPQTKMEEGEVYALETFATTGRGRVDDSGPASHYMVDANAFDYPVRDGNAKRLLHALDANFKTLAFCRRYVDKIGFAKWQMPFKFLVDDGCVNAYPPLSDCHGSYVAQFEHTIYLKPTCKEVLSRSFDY

[2] = substrate: CSCC[C@H](N)C(=O)Nc1ccc2c(C)cc(=O)oc2c1; experiment: fluorometric hydrolysis by purified GST-EhMetAP2; Km by end point assay; type: biochemical, Entamoeba histolytica; conditions: Mn2+ / Mg2+ ([…] MnCl2, […] MgCl2 in the assay)

In the case of `CO[C@@H]1[C@H](OC(=O)/C=C/C=C/C=C/C=C/C(=O)O)CC[C@]2(CO2)[C@H]1[C@@]1(C)O[C@@H]1CC=C(C)C` [compound 1, fumagillin], the Ki [1] is reported as 60 ± 33 nM.

B1: E. histolytica methionine aminopeptidase 2 (EhMetAP2) (Entamoeba histolytica HM-1:IMSS) (protein)
chain: MQATGKPHSKTSKSKKSGSKANKKPATSSVKPNTPAAPVDPSVIPPEIKEPTETLSTMYKDEKCFPEGENMQYTQEWNLQRFTSAEARERERALIDIEDYRKAAAIHKSVRQWAQQWIKPGMSDLFVAENIERKVREECEVDGVNTTERGMAFPCGLSVNSCAAHFTPNPNDPLSFYKTDDVVKIDFGVHVNGHLIDSAFTMTWDPALQPILDCSKDATNTGIKNIGVDVRLCDIGDAIEEVMSSYEVEIKGKTYQLQPVRNLSGHMVGSYAVHAGKSIPICKGGPQTKMEEGEVYALETFATTGRGRVDDSGPASHYMVDANAFDYPVRDGNAKRLLHALDANFKTLAFCRRYVDKIGFAKWQMPFKFLVDDGCVNAYPPLSDCHGSYVAQFEHTIYLKPTCKEVLSRSFDY
notes: full-length, N-terminal GST fusion (GST-EhMetAP2) expressed in S. cerevisiae
B1 showed a Km [2] of 0.77 ± 0.04 mM.
